Reference: article PMC10046369, “Low-Affinity/High-Selectivity Dopamine Transport Inhibition Sufficient to Rescue Cognitive Functions in the Aging Rat” (Biomolecules, 2023)

How the values were obtained:
Assay in all cases: biochemical
Parameters in all cases: KINOMEscan competition binding panel, per cent of control
Conditions in all cases: read-out: %Ctrl @ 2800nM
[1] = biological target: RET(V804L) (Homo sapiens, UniProt P07949, V804L)
How it was run: (§1)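 Competition binding panel (KINOMEscan) across 450 human kinases and disease-relevant mutants, run to the contractor's standard protocol. Values are % control: (test signal − positive control signal)/(negative control signal − positive control signal) × 100, with lower values indicating stronger binding.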

[2] = biological target: T1, ABL1-phosphorylated (Homo sapiens, UniProt P00519)
T1 construct: phosphorylated
How it was run: as §1

[3] = biological target: SRPK2 (Homo sapiens, UniProt P78362)
How it was run: as §1

[4] = biological target: BRAF (Homo sapiens, UniProt P15056)
How it was run: as §1

[5] = biological target: ITK (Homo sapiens, UniProt Q08881)
How it was run: as §1

[6] = biological target: BMPR1B (Homo sapiens, UniProt O00238)
How it was run: as §1

[7] = biological target: MAP3K3 (Homo sapiens, UniProt Q99759)
How it was run: as §1

[8] = biological target: RET(V804M) (Homo sapiens, UniProt P07949, V804M)
How it was run: as §1

[9] = biological target: CAMK1 (Homo sapiens, UniProt Q14012)
How it was run: as §1

[10] = biological target: HIPK1 (Homo sapiens, UniProt Q86Z02)
How it was run: as §1

[11] = biological target: PRKD1 (Homo sapiens, UniProt Q15139)
How it was run: as §1

[12] = biological target: MET (Homo sapiens, UniProt P08581)
How it was run: as §1

[13] = biological target: T2, ERK3 (Homo sapiens, UniProt Q16659)
T2 construct: gene MAPK6
How it was run: as §1

[14] = biological target: EGFR(S752-I759del) (Homo sapiens, UniProt P00533, DEL752-759)
How it was run: as §1

[15] = biological target: T3, S6K1 (Homo sapiens, UniProt P23443)
T3 construct: gene RPS6KB1
How it was run: as §1

[16] = biological target: EGFR(T790M) (Homo sapiens, UniProt P00533, T790M)
How it was run: as §1

[17] = biological target: PIK3C2G (Homo sapiens, UniProt O75747)
How it was run: as §1

[18] = biological target: T4, PFTK1 (Homo sapiens, UniProt O94921)
T4 construct: gene CDK14
How it was run: as §1

[19] = biological target: T5, FAK (Homo sapiens, UniProt Q05397)
T5 construct: gene PTK2
How it was run: as §1

[20] = biological target: ACVR2B (Homo sapiens, UniProt Q13705)
How it was run: as §1

[21] = biological target: FLT3(ITD) (Homo sapiens, UniProt P36888, ITD)
How it was run: as §1

[22] = biological target: NEK6 (Homo sapiens, UniProt Q9HC98)
How it was run: as §1

[23] = biological target: T6, p38-delta (Homo sapiens, UniProt O15264)
T6 construct: gene MAPK13
How it was run: as §1

[24] = biological target: MYLK4 (Homo sapiens, UniProt Q86YV6)
How it was run: as §1

[25] = biological target: T7, ASK2 (Homo sapiens, UniProt O95382)
T7 construct: gene MAP3K6
How it was run: as §1

[26] = biological target: CDK2 (Homo sapiens, UniProt P24941)
How it was run: as §1

HIPK1, sequence (Q86Z02 whole entry): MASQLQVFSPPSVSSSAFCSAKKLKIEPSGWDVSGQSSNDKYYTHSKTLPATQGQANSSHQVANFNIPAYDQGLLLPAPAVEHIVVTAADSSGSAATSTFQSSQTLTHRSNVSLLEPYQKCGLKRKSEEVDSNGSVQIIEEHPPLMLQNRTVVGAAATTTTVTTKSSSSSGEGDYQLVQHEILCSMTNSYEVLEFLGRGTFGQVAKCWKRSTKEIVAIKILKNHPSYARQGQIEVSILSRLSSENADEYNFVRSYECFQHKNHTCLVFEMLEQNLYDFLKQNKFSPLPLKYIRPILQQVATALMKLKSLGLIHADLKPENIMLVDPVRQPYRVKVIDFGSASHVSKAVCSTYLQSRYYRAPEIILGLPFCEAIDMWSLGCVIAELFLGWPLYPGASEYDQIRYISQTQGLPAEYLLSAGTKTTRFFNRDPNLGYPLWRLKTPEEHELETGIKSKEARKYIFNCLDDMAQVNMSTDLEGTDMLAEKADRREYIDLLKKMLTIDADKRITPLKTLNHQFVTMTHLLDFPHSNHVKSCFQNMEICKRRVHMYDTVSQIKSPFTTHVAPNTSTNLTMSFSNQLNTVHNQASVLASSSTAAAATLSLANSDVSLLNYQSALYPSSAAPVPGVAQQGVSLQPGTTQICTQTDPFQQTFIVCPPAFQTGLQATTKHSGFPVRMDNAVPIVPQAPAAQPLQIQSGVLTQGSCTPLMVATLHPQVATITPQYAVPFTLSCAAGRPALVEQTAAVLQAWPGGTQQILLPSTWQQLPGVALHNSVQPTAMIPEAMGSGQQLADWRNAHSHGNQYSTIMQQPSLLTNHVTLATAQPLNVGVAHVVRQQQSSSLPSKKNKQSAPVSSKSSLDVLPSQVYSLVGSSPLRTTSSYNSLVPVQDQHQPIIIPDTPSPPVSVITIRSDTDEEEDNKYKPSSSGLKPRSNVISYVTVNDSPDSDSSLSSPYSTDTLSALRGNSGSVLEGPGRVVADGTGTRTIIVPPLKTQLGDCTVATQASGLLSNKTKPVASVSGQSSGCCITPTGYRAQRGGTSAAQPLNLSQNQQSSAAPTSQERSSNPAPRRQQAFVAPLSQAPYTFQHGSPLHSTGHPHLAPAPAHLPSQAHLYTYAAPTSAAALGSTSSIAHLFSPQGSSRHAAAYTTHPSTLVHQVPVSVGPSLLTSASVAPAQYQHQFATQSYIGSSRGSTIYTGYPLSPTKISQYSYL
ACVR2B, sequence (Q13705 whole entry): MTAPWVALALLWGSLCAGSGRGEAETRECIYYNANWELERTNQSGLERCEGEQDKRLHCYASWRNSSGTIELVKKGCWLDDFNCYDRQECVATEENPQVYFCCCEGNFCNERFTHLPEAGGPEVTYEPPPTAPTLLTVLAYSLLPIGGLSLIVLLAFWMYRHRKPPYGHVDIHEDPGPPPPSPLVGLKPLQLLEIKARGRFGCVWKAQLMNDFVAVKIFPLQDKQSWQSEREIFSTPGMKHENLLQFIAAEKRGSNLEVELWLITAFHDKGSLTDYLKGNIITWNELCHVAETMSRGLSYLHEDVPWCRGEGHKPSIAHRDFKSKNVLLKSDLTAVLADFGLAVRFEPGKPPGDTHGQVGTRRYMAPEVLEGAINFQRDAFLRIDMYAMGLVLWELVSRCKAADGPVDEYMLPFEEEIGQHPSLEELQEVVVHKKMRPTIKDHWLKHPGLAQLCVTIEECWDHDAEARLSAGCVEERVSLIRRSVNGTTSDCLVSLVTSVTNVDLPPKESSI
T5 sequence (Q05397 whole entry): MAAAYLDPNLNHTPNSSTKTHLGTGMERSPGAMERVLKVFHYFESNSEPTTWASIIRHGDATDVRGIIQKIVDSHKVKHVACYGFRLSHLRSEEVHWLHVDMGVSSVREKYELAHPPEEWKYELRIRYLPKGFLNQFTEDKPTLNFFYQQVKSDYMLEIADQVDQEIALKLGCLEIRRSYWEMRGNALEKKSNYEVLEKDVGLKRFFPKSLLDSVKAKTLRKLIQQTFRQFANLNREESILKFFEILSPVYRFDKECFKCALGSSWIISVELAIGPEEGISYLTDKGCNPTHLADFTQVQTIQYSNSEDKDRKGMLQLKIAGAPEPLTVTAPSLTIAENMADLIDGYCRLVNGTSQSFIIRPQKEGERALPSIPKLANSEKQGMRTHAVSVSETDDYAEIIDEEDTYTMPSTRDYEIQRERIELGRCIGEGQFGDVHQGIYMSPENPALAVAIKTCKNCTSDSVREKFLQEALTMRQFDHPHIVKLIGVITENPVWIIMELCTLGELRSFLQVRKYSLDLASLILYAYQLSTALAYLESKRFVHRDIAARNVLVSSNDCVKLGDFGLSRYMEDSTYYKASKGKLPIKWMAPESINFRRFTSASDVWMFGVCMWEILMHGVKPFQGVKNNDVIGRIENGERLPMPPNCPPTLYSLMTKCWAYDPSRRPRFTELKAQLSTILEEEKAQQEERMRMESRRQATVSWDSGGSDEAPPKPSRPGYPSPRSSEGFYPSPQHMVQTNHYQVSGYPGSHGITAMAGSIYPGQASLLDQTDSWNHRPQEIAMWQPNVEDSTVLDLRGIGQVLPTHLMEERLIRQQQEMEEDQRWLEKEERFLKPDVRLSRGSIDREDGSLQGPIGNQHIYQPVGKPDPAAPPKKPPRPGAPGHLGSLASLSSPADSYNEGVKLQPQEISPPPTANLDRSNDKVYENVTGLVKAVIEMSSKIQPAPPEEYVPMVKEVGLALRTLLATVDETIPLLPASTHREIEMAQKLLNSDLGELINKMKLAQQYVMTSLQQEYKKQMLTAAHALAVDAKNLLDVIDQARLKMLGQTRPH
NEK6, sequence (Q9HC98 whole entry): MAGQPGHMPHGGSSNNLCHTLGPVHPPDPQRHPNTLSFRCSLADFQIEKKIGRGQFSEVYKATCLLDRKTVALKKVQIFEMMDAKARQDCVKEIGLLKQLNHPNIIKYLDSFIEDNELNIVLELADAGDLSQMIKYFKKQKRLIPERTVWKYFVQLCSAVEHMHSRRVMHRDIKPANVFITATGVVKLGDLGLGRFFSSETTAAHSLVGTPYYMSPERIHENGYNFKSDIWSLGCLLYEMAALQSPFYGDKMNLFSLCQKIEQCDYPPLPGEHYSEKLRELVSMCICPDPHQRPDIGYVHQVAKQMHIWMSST
BMPR1B, sequence (O00238 whole entry): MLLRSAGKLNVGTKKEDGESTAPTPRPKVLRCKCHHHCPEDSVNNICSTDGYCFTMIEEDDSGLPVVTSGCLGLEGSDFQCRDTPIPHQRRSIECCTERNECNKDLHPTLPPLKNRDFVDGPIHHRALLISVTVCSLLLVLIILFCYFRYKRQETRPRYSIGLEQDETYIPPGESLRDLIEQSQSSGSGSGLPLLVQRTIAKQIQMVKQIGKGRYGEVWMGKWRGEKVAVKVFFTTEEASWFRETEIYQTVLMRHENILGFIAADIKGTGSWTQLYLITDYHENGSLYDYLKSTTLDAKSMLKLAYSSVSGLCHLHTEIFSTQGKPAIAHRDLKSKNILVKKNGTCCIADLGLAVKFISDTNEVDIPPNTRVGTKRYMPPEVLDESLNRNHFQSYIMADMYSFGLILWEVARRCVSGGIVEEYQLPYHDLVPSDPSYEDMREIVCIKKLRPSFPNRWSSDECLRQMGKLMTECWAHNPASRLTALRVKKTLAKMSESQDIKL
T6 sequence (O15264 whole entry): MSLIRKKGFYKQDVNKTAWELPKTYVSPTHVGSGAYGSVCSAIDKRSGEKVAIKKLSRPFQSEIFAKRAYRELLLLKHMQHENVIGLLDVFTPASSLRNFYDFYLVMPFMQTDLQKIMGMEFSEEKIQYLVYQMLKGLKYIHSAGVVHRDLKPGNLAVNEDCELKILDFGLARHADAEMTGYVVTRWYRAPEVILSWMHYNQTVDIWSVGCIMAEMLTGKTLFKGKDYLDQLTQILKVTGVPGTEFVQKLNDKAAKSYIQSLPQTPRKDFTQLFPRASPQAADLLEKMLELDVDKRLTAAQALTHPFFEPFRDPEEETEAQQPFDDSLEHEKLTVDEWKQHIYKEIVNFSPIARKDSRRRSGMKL
CAMK1, sequence (Q14012 whole entry): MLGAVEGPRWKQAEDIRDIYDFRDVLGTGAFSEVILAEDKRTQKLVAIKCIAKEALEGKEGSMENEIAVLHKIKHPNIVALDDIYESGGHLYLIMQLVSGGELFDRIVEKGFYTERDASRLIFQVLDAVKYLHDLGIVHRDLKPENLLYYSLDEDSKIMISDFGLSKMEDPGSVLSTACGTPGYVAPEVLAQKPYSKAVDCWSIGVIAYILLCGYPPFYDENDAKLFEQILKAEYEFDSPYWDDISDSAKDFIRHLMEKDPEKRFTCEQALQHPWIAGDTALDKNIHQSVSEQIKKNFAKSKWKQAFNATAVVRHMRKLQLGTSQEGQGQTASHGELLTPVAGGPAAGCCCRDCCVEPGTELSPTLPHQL
T2 sequence (Q16659 whole entry): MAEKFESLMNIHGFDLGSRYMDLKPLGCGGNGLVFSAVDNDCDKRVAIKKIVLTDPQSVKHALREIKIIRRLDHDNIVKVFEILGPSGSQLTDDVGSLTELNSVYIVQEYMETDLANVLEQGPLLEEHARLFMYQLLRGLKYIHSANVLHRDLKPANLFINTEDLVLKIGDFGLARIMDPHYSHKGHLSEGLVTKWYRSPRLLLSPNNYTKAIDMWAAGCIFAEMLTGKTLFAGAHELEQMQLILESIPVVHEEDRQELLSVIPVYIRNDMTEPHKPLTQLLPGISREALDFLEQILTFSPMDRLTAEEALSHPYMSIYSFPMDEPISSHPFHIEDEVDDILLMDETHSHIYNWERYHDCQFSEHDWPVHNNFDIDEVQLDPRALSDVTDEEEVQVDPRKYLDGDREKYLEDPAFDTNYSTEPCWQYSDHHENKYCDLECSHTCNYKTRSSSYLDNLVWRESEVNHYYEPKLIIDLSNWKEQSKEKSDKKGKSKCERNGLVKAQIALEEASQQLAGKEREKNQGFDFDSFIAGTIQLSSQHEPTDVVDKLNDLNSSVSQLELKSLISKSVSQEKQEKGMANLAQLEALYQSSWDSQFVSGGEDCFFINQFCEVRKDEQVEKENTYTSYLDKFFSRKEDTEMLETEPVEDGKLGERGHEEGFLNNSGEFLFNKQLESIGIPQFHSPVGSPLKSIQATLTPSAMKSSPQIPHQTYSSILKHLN

Work on `[O-][S@@+](Cc1cncs1)C(c1ccccc1)c1ccccc1` [S-CE-123, (S)-5-((Benzhydrylsulfinyl)Methyl)Thiazole] yielded a remaining binding at 2.8 µM [1] of 91%, a remaining binding at 2.8 µM [2] of 100% and a remaining binding at 2.8 µM [3] of 76%. It also gave a remaining binding at 2.8 µM [4] of 100%, a remaining binding at 2.8 µM [5] of 100% and a remaining binding at 2.8 µM [6] of 100%. The remaining binding at 2.8 µM [7] was 86%, the remaining binding at 2.8 µM [8] was 95% and the remaining binding at 2.8 µM [9] was 97%. It also gave a remaining binding at 2.8 µM [10] of 90%, a remaining binding at 2.8 µM [11] of 92% and a remaining binding at 2.8 µM [12] of 99%. The remaining binding at 2.8 µM [13] was 93%, the remaining binding at 2.8 µM [14] was 66% and the remaining binding at 2.8 µM [15] was 90%. The remaining binding at 2.8 µM [16] was 98%, the remaining binding at 2.8 µM [17] was 66% and the remaining binding at 2.8 µM [18] was 92%. The remaining binding at 2.8 µM [19] was 100%, the remaining binding at 2.8 µM [20] was 100% and the remaining binding at 2.8 µM [21] was 100%. For the same molecule, the remaining binding at 2.8 µM [22] was 100%, the remaining binding at 2.8 µM [23] was 95% and the remaining binding at 2.8 µM [24] was 89%. It also gave a remaining binding at 2.8 µM [25] of 100% and a remaining binding at 2.8 µM [26] of 94%.
